Holding throughout (format): cell-based
Holding throughout (design): unit not given here

Assay [1] has as its system Staphylococcus aureus S13E. As to the kind of experiment: MIC, standard agar-dilution assay (Table II). Here is the method: (§1) The MIC's in Table II were determined by standard agar-dilution assays. The MIC's in Table III were obtained using a conventional broth-dilution microtiter test.
In assay [2] the test system is Staphylococcus aureus V41. As to the kind of experiment: MIC, standard agar-dilution assay (Table II). Conditions: Staphylococcus aureus V41, penicillin-resistant strain. Here is the method: as §1
For assay [3], the system named is Staphylococcus aureus X1.1. As to the kind of experiment: MIC, standard agar-dilution assay (Table II). As for the experimental part: as §1
The subject of assay [4] is Staphylococcus aureus X400. In words: MIC, standard agar-dilution assay (Table II). Conditions: Staphylococcus aureus X400, methicillin-resistant strain. As for the experimental part:
as §1

For assay [5], the system named is Staphylococcus epidermidis EPI1. In words: MIC, standard agar-dilution assay (Table II). As for the experimental part: as §1
For assay [6], the system named is Staphylococcus epidermidis EPI2. As to the kind of experiment: MIC, standard agar-dilution assay (Table II). As for the experimental part:
as §1

Assay [7] has as its system Streptococcus Group D 9960. As to the kind of experiment: MIC, standard agar-dilution assay (Table II). As for the experimental part: as §1
The subject of assay [8] is Streptococcus Group D X66. As to the kind of experiment: MIC, standard agar-dilution assay (Table II). Here is the method:
as §1

In assay [9] the test system is Streptococcus pneumoniae Park I. As to the kind of experiment: MIC, standard agar-dilution assay (Table II). As for the experimental part:
as §1

Assay [10] has as its system Streptococcus pyogenes C203. As to the kind of experiment: MIC, standard agar-dilution assay (Table II). As for the experimental part: as §1
The next assay deals with Mycoplasma gallisepticum. As to the kind of experiment: MIC, broth-dilution microtiter test (Table III). As for the experimental part:
as §1

The test system of the next assay is Mycoplasma hyorhinis. As to the kind of experiment: MIC, broth-dilution microtiter test (Table III). As for the experimental part:
as §1

For another assay, the system named is Mycoplasma synoviae. In words: MIC, broth-dilution microtiter test (Table III). As for the experimental part: as §1
In assay [11] the test system is Pasteurella haemolytica 22C. In words: MIC, broth-dilution microtiter test (Table III). As for the experimental part:
as §1

Assay [12] relates to Pasteurella haemolytica 23C. As to the kind of experiment: MIC, broth-dilution microtiter test (Table III). As for the experimental part:
as §1

Assay [13] has as its system Pasteurella haemolytica 41D. As to the kind of experiment: MIC, broth-dilution microtiter test (Table III). Here is the method: as §1
For assay [14], the system named is Pasteurella multocida 17E. As to the kind of experiment: MIC, broth-dilution microtiter test (Table III). Conditions: bovine isolate. As for the experimental part: as §1
Assay [15] deals with Pasteurella multocida 22A. As to the kind of experiment: MIC, broth-dilution microtiter test (Table III). As for the experimental part: as §1
For assay [16], the system named is Pasteurella multocida 40G. As to the kind of experiment: MIC, broth-dilution microtiter test (Table III). Here is the method:
as §1

Assay [17] deals with Pasteurella multocida 60A. In words: MIC, broth-dilution microtiter test (Table III). Conditions: avian isolate. Here is the method:
as §1

In assay [18] the test system is Pasteurella multocida 68C. As to the kind of experiment: MIC, broth-dilution microtiter test (Table III). As for the experimental part:
as §1

Another assay has as its system Staphylococcus aureus. In words: MIC, broth-dilution microtiter test (Table III). As for the experimental part: as §1
Another assay concerns Streptococcus sp. 80. In words: MIC, broth-dilution microtiter test (Table III). As for the experimental part: as §1

Take `CCC1OC(=O)CC(O)C(C)C(OC2OC(C)C(OC(=O)CC(C)C)C(N(C)C)C2OC(C)=O)C(CC=O)CC(C)C(=O)C=CC(C)=CC1COC(=O)CC(C)C` (stereo not shown) [Compound 50, 2'-O-Acetyl-4',23-di-O-isovaleryl-OMT]: the “minimal inhibitory concentration (MIC)” value in [1] was determined as 1; in assay [2], 2; in assay [3], 1; in assay [4], 2; in assay [5], 1; in [6], 1. Besides, the “minimal inhibitory concentration (MIC)” value amounted to 1 in assay [7]; 1 in assay [8]; 0.5 in [9]; 1 in [10]; 0.195 in the assay with Mycoplasma gallisepticum; 6.25 in the assay on Mycoplasma hyorhinis. The “minimal inhibitory concentration (MIC)” value in the assay on Mycoplasma synoviae is given as 1.56; in assay [11] it was 25; in [12] it was 25; in assay [13], 25; in assay [14], 12.5; in assay [15] it was 25. In addition, the “minimal inhibitory concentration (MIC)” value in assay [16] was found to be 3.12; in assay [17] it was 6.25; in assay [18], 6.25; with Staphylococcus aureus, 0.39; with Streptococcus sp. 80, 0.39.
`CCC1OC(=O)CC(O)C(C)C(OC2OC(C)C(OC(=O)CC(C)C)C(N(C)C)C2OC(C)=O)C(CC=O)CC(C)C(=O)C=CC(C)=CC1COC(C)=O` (stereo not shown) [Compound 51, 2',23-Di-O-Acetyl-4'-O-isovaleryl-OMT]: the “minimal inhibitory concentration (MIC)” value in [1] came out at 0.5; in [2] it was 1; in [3] it was 1; in [4], 1; in assay [5], 0.5; in assay [6], 1. Further, the “minimal inhibitory concentration (MIC)” value is 1 in assay [7]; 1 in assay [8]; 0.125 in [9]; 0.25 in [10]; less than 0.05 in the assay on Mycoplasma gallisepticum; 6.25 with Mycoplasma hyorhinis. Moreover, the “minimal inhibitory concentration (MIC)” value in the assay on Mycoplasma synoviae is recorded as 0.78; in assay [11], 3.12; in [12], 3.12; in assay [13], 3.12; in assay [14], 3.12; in assay [15], 6.25. The “minimal inhibitory concentration (MIC)” value in assay [16] came out at 3.12; in [17], 3.12; in assay [18] it was 3.12; in the assay on Staphylococcus aureus it was 0.78; in the assay on Streptococcus sp. 80 it was 0.78.

The record behind these values is patent publication US4401660A, “Ester derivatives of 5-O-mycaminosyl tylonolide and method of using same” (Eli Lilly and Company, priority 1981, dated 1983).
